Marks after values point to notes of the source that are not given here.

Holding throughout (format): in vivo
Experiment [1] relates to weaned pigs. The experiment in a line: Pig growth measurement (body weight, feed intake, feed/gain) in weaned pigs. As to conditions: mean±SD.
The test system of experiment [2] is pig antioxidative function. In words: Serum antioxidative function measurement (T-AOC, GPx, SOD, MDA) with kits. The conditions noted are these: diet + 0.3 mg/kg Na2SeO3 or 0.14 mg/kg nanostructure, mean±SD.
For experiment [3], the system named is Serum IgG and IgM. In words: Serum IgG and IgM by turbidimetric inhibition immuno assay. The conditions noted are these: pig serum; diet + 0.3 mg/kg Na2SeO3 or 0.14 mg/kg nanostructure; mean±SD.
The test system of experiment [4] is Serum inflammatory cytokine TNF-α, IL-2 and IL-6. The experiment in a line: Serum inflammatory cytokines (TNF-α, IL-2, IL-6) by ELISA. As to conditions: pig serum; diet + 0.3 mg/kg Na2SeO3 or 0.14 mg/kg nanostructure; mean±SD. In general terms: ELISA stands for enzyme-linked immunosorbent assay.
Setting [5] is: day 28 to 67, diet + 0.3 mg/kg Na2SeO3 or 0.14 mg/kg nanostructure.

For the compound `O=[Se](O)O` [sodium selenite], in experiment [1] (67-day-old, basic diet + 0.3 mg/kg Na2SeO3 (group 1) or 0.14 mg/kg biogenic elemental selenium nanostructure (group 2)), the Final weight is listed as 24.17 ± 0.76^a kg. In experiment [1] (setting [5]), the “Average daily feed intake” value was found to be 654.17 ± 37.64 g, the Average daily gain was 411.54 ± 20.63^a g and the Feed/gain ratio is recorded as 1.59 ± 0.01^b. For the same compound, in experiment [2], the GPx is given as 238.56 ± 13.07^a U/mL, the MDA was 3.31 ± 0.10^a nmol/mL, the SOD is reported as 147.94 ± 5.89^a U/mL and the T-AOC was 2.51 ± 0.16^a U/mL. In addition, in experiment [3], the IgG was 2.66 ± 0.23^ab g/L and the IgM is 0.71 ± 0.07^a g/L. Also, in experiment [4], the IL-2 is 108.19 ± 10.26^ab ng/L, the IL-6 is 571.10 ± 38.62^ab ng/L and the TNF-α is listed as 41.86 ± 4.50^ab ng/L.

The record behind these values is patent US10087466B2 (priority 2016, dated 2018).
